Measured values from BigSolDB 2.1.

O=c1[nH]c(=O)n(C2CCCO2)cc1F (centres undefined)
solubility (mole fraction) (in acetone, 273.15 K): 0.00932
solubility (mole fraction) (in acetone, 278.15 K): 0.0115
solubility (mole fraction) (in acetone, 283.15 K): 0.014
solubility (mole fraction) (in acetone, 288.15 K): 0.0168
solubility (mole fraction) (in acetone, 293.15 K): 0.0196
solubility (mole fraction) (in acetone, 298.15 K): 0.0233
solubility (mole fraction) (in acetone, 303.15 K): 0.0277
solubility (mole fraction) (in acetone, 308.15 K): 0.0326
solubility (mole fraction) (in acetone, 313.15 K): 0.0388
solubility (mole fraction) (in ethanol, 273.15 K): 0.00118
solubility (mole fraction) (in ethanol, 278.15 K): 0.00152
solubility (mole fraction) (in ethanol, 283.15 K): 0.00198
solubility (mole fraction) (in ethanol, 288.15 K): 0.00253
solubility (mole fraction) (in ethanol, 293.15 K): 0.00318
solubility (mole fraction) (in ethanol, 298.15 K): 0.00402
solubility (mole fraction) (in ethanol, 303.15 K): 0.00506
solubility (mole fraction) (in ethanol, 308.15 K): 0.00629
solubility (mole fraction) (in ethanol, 313.15 K): 0.00767
solubility (mole fraction) (in ethyl acetate, 273.15 K): 0.00607
solubility (mole fraction) (in ethyl acetate, 278.15 K): 0.00718
solubility (mole fraction) (in ethyl acetate, 283.15 K): 0.00837
solubility (mole fraction) (in ethyl acetate, 288.15 K): 0.00957
solubility (mole fraction) (in ethyl acetate, 293.15 K): 0.0109
solubility (mole fraction) (in ethyl acetate, 298.15 K): 0.0122
solubility (mole fraction) (in ethyl acetate, 303.15 K): 0.0137
solubility (mole fraction) (in ethyl acetate, 308.15 K): 0.0153
solubility (mole fraction) (in ethyl acetate, 313.15 K): 0.0175
solubility (mole fraction) (in isopropanol, 273.15 K): 0.00086
solubility (mole fraction) (in isopropanol, 278.15 K): 0.00109
solubility (mole fraction) (in isopropanol, 283.15 K): 0.00139
solubility (mole fraction) (in isopropanol, 288.15 K): 0.00179
solubility (mole fraction) (in isopropanol, 293.15 K): 0.00227
solubility (mole fraction) (in isopropanol, 298.15 K): 0.00286
solubility (mole fraction) (in isopropanol, 303.15 K): 0.00358
solubility (mole fraction) (in isopropanol, 308.15 K): 0.00444
solubility (mole fraction) (in isopropanol, 313.15 K): 0.00547
solubility (mole fraction) (in methanol, 273.15 K): 0.00362
solubility (mole fraction) (in methanol, 278.15 K): 0.00428
solubility (mole fraction) (in methanol, 283.15 K): 0.00495
solubility (mole fraction) (in methanol, 288.15 K): 0.00592
solubility (mole fraction) (in methanol, 293.15 K): 0.00692
solubility (mole fraction) (in methanol, 298.15 K): 0.00802
solubility (mole fraction) (in methanol, 303.15 K): 0.00925
solubility (mole fraction) (in methanol, 308.15 K): 0.0107
solubility (mole fraction) (in methanol, 313.15 K): 0.0126
solubility (mole fraction) (in n-propanol, 273.15 K): 0.00112
solubility (mole fraction) (in n-propanol, 278.15 K): 0.00141
solubility (mole fraction) (in n-propanol, 283.15 K): 0.00176
solubility (mole fraction) (in n-propanol, 288.15 K): 0.00223
solubility (mole fraction) (in n-propanol, 293.15 K): 0.00274
solubility (mole fraction) (in n-propanol, 298.15 K): 0.00343
solubility (mole fraction) (in n-propanol, 303.15 K): 0.0042
solubility (mole fraction) (in n-propanol, 308.15 K): 0.00516
solubility (mole fraction) (in n-propanol, 313.15 K): 0.00618
